Assays:
Type in all cases: cell-based, human
[1] = system: day 5 cardiac progenitors; assay: RNA-seq differential gene expression, day 5 pI:C-primed vs untreated cardiac progenitors
Experimental: Day-5 cells from d3-5 untreated, TGFβ-treated, and pI:C-treated progenitors from the 19-9-11 iPS cell line were separately prepared as above for cell dissociation of progenitors from three different wells of each condition (for 9 total sequencing samples) and isolated as described above for RNA for RT-qPCR. rRNA-reduced Illumina TruSeq™ Stranded total RNA libraries were prepared and 1×100 bp single end sequencing was performed. To map and annotate RNA-seg data, STAR and HTSeq were used, respectively (Anders et al., 2015; Dobin and Gingeras, 2015). Annotated transcript counts were further processed with DeSEq2 for differential gene expression analysis (Love et al., 2014). Gene neighborhood analysis was performed with NEST (Jiang et al., 2015).

[2] = system: day 5 cardiac progenitor cells; assay: Propidium iodide cell cycle flow cytometry; details: day 5 cardiac progenitor cells
Experimental: Propidium iodide staining was performed on ethanol-fixed cells of the 19-9-11 iPS cell line with a low flow rate and linear mode fluorescence according to a previously published protocol (Darzynkiewicz and Juan, 2001).

[3] = system: day 5 cardiac progenitors; assay: Methylcellulose colony-forming assay; details: 1% methylcellulose, four days, size >35 μm
Experimental: Day-5 cardiac progenitors from the 19-9-11 cell line were dissociated as above, but then passed 10 times through a syringe with 18 gauge needle and filtered twice through a 45 μm flow cytometry cell strainer. The cells were then counted and 100,000 cells were then mixed with 2 mL of K20 medium plus 10 μM Y-27632 ROCK-inhibitor (Tocris) containing 1% ES-Cult methylcellulose (Stemcell Technologies) and grown in one 6-well of a corning Ultra Low Attachment plate. ImageJ was used to measure colony diameter four days later and single cells observed the first day and after had diameters less than 35 μm.

[4] = day 5 progenitors, out of ~10,500 genes detected

Q: With polyinosinic-polycytidylic acid [pI:C] as the substance, how does the “number of genes significantly downregulated” value [1, 4] read?
A: 912 genes

Q: What about the “number of genes significantly upregulated” value [1, 4] of the same substance?
A: 514 genes

Q: What about the log2FoldChange ([1]; gene ACTN3) of the same substance?
A: 0.6193

Q: And the log2FoldChange ([1]; gene ADAMTS18)?
A: −1.365

Q: And the log2FoldChange ([1]; gene ADCY5)?
A: 0.9552

Q: What about the log2FoldChange ([1]; gene ADCY8) of the same substance?
A: 0.6342

Q: And the log2FoldChange ([1]; gene ALDH1A2)?
A: 1.067

Q: What about the log2FoldChange ([1]; gene ANKRD18A) of the same substance?
A: 1.148

Q: What about the log2FoldChange ([1]; gene AQP3) of the same substance?
A: 0.8778

Q: And the log2FoldChange ([1]; gene ARL15)?
A: 0.6459

Q: What about the log2FoldChange ([1]; gene ARSI) of the same substance?
A: 0.6043

Q: What about the log2FoldChange ([1]; gene ATP8B4) of the same substance?
A: −1.545

Q: And the log2FoldChange ([1]; gene BAI2)?
A: 0.6046

Q: What about the log2FoldChange ([1]; gene C20orf103) of the same substance?
A: 0.9674

Q: And the log2FoldChange ([1]; gene CD82)?
A: 1.288

Q: What about the log2FoldChange ([1]; gene CDC25B) of the same substance?
A: 0.6173

Q: And the log2FoldChange ([1]; gene CHRNA3)?
A: 0.6865

Q: And the log2FoldChange ([1]; gene CHRNB4)?
A: 0.6085

Q: What about the log2FoldChange ([1]; gene CNTFR) of the same substance?
A: 0.8038

Q: And the log2FoldChange ([1]; gene COL2A1)?
A: 0.9666

Q: What about the log2FoldChange ([1]; gene COL19A1) of the same substance?
A: −0.827

Q: And the log2FoldChange ([1]; gene CRNDE)?
A: 0.7347

Q: What about the log2FoldChange ([1]; gene CTNNA2) of the same substance?
A: 0.8199

Q: What about the log2FoldChange ([1]; gene DKFZp686D0853) of the same substance?
A: 0.782

Q: What about the log2FoldChange ([1]; gene DKK1) of the same substance?
A: 0.8084

Q: What about the log2FoldChange ([1]; gene DLL3) of the same substance?
A: 0.7285

Q: And the log2FoldChange ([1]; gene DPYSL5)?
A: 0.6254

Q: What about the log2FoldChange ([1]; gene DUSP4) of the same substance?
A: −1.302

Q: What about the log2FoldChange ([1]; gene EPHB3) of the same substance?
A: 0.6122

Q: What about the log2FoldChange ([1]; gene ERBB4) of the same substance?
A: −0.836

Q: What about the log2FoldChange ([1]; gene EYA1) of the same substance?
A: 0.927

Q: What about the log2FoldChange ([1]; gene FAM98B) of the same substance?
A: 1.008

Q: What about the log2FoldChange ([1]; gene FHDC1) of the same substance?
A: 0.6831

Q: And the log2FoldChange ([1]; gene FOXC1)?
A: 0.9077

Q: And the log2FoldChange ([1]; gene FOXC2)?
A: 0.8203

Q: What about the log2FoldChange ([1]; gene FOXL1) of the same substance?
A: 1.223

Q: And the log2FoldChange ([1]; gene GJA4)?
A: −0.828

Q: What about the log2FoldChange ([1]; gene GPC3) of the same substance?
A: 0.6647

Q: What about the log2FoldChange ([1]; gene GPR55) of the same substance?
A: −1.691

Q: What about the log2FoldChange ([1]; gene HAND1) of the same substance?
A: −1.326

Q: And the log2FoldChange ([1]; gene HAPLN3)?
A: 0.8468

Q: What about the log2FoldChange ([1]; gene HEY1) of the same substance?
A: 0.6706

Q: What about the log2FoldChange ([1]; gene HLA-DQA2) of the same substance?
A: 0.881

Q: What about the log2FoldChange ([1]; gene IFI16) of the same substance?
A: 1.021

Q: And the log2FoldChange ([1]; gene IP6K3)?
A: 0.6953

Q: What about the log2FoldChange ([1]; gene IRX3) of the same substance?
A: 0.7452

Q: And the log2FoldChange ([1]; gene IRX5)?
A: 0.9174

Q: What about the log2FoldChange ([1]; gene JAG1) of the same substance?
A: 1.453

Q: And the log2FoldChange ([1]; gene KCNH7)?
A: 0.8627

Q: And the log2FoldChange ([1]; gene KCNJ16)?
A: −1.26

Q: And the log2FoldChange ([1]; gene KIAA0319)?
A: 0.6142

Q: What about the log2FoldChange ([1]; gene KIAA1324) of the same substance?
A: 0.914

Q: What about the log2FoldChange ([1]; gene LIX1) of the same substance?
A: 0.6361

Q: What about the log2FoldChange ([1]; gene MMP16) of the same substance?
A: 0.9772

Q: What about the log2FoldChange ([1]; gene MN1) of the same substance?
A: 0.8939

Q: What about the log2FoldChange ([1]; gene MT1X) of the same substance?
A: 0.7867

Q: What about the log2FoldChange ([1]; gene MXRA5) of the same substance?
A: −1.313

Q: What about the log2FoldChange ([1]; gene MYO7A) of the same substance?
A: 0.815

Q: And the log2FoldChange ([1]; gene NEFL)?
A: 0.6647

Q: And the log2FoldChange ([1]; gene NELL2)?
A: 0.6696

Q: What about the log2FoldChange ([1]; gene NETO1) of the same substance?
A: 0.918

Q: And the log2FoldChange ([1]; gene NFKBIZ)?
A: 0.7246

Q: And the log2FoldChange ([1]; gene NKX3-1)?
A: 0.9735

Q: What about the log2FoldChange ([1]; gene NPY) of the same substance?
A: 1.254

Q: And the log2FoldChange ([1]; gene NR2F1)?
A: 0.7356

Q: What about the log2FoldChange ([1]; gene NRCAM) of the same substance?
A: −1.533

Q: What about the log2FoldChange ([1]; gene NRXN1) of the same substance?
A: 0.724

Q: And the log2FoldChange ([1]; gene PANX2)?
A: 1.107

Q: What about the log2FoldChange ([1]; gene PAPPA) of the same substance?
A: 0.9808

Q: And the log2FoldChange ([1]; gene PDE1B)?
A: 0.9995

Q: What about the log2FoldChange ([1]; gene PDGFD) of the same substance?
A: 0.6619

Q: And the log2FoldChange ([1]; gene PPFIA2)?
A: 0.8189

Q: And the log2FoldChange ([1]; gene PPFIBP2)?
A: −0.835

Q: And the log2FoldChange ([1]; gene PPM1J)?
A: 0.6364

Q: What about the log2FoldChange ([1]; gene PPP1R1A) of the same substance?
A: 1.171

Q: And the log2FoldChange ([1]; gene PRSS12)?
A: 0.817

Q: What about the log2FoldChange ([1]; gene PRSS23) of the same substance?
A: 0.9765

Q: And the log2FoldChange ([1]; gene PTN)?
A: 0.7536

Q: What about the log2FoldChange ([1]; gene PTPN12) of the same substance?
A: 0.7631

Q: What about the log2FoldChange ([1]; gene RARB) of the same substance?
A: 0.9291

Q: What about the log2FoldChange ([1]; gene RASSF10) of the same substance?
A: −1.321

Q: And the log2FoldChange ([1]; gene RERG)?
A: 0.6913

Q: And the log2FoldChange ([1]; gene RHBDL3)?
A: 0.7861

Q: What about the log2FoldChange ([1]; gene RND3) of the same substance?
A: 0.6053

Q: And the log2FoldChange ([1]; gene ROBO3)?
A: 0.6174

Q: And the log2FoldChange ([1]; gene SCGB1A1)?
A: 0.7028

Q: And the log2FoldChange ([1]; gene SIX1)?
A: 1.397

Q: What about the log2FoldChange ([1]; gene SLC24A3) of the same substance?
A: 0.7397

Q: What about the log2FoldChange ([1]; gene SLC28A2) of the same substance?
A: −1.472

Q: What about the log2FoldChange ([1]; gene SPOCK3) of the same substance?
A: 0.6961

Q: And the log2FoldChange ([1]; gene STAR)?
A: 0.7806

Q: What about the log2FoldChange ([1]; gene SYT4) of the same substance?
A: 0.9363

Q: What about the log2FoldChange ([1]; gene SYT6) of the same substance?
A: 0.6752

Q: And the log2FoldChange ([1]; gene TBX3)?
A: −1.289

Q: What about the log2FoldChange ([1]; gene TMEM132E) of the same substance?
A: 0.6361

Q: What about the log2FoldChange ([1]; gene TMOD1) of the same substance?
A: −1.407

Q: What about the log2FoldChange ([1]; gene TMPRSS13) of the same substance?
A: 0.6086

Q: What about the log2FoldChange ([1]; gene TOX) of the same substance?
A: 0.6437

Q: What about the log2FoldChange ([1]; gene TRPA1) of the same substance?
A: −1.599

Q: What about the log2FoldChange ([1]; gene TXNIP) of the same substance?
A: 0.805

Q: What about the log2FoldChange ([1]; gene USP27X) of the same substance?
A: 0.6946

Q: And the log2FoldChange ([1]; gene VEPH1)?
A: −1.26

Q: And the “fraction of cells in the G2/S phase of the cell cycle” value [2]?
A: increased

Q: And the colony formation [3]?
A: abundant multi-cellular colonies

— patent US11352604B2, “Method of making cardiomyocytes from human pluripotent cells” (Wisconsin Alumni Research Foundation, priority 2016, dated 2022)
